# From publication PMC4252796 (Molecular and biochemical parasitology, 2014)
# Target: T1, LmjPEM1 (Leishmania major, UniProt Q4Q5U4)
# T1 sequence (Q4Q5U4 1-582): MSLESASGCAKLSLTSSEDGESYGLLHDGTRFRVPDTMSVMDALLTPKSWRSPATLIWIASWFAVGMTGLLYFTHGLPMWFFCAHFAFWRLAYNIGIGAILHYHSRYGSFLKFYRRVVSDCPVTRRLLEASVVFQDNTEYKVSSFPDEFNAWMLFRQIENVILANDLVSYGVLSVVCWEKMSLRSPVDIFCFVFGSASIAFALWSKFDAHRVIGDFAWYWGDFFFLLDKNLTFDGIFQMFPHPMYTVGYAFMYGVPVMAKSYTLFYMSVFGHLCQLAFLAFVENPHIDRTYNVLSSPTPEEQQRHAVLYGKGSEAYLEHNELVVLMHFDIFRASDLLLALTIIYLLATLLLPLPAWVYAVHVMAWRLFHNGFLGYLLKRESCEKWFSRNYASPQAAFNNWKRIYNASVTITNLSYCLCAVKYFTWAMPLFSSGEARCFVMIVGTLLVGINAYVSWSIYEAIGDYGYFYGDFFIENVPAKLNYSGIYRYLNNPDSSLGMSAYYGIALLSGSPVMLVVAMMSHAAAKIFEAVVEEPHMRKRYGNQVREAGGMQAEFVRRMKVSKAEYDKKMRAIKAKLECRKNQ
# Assay: radiometric PEMT assay, 3H-SAM incorporation into total lipids, yeast extract
# Format: biochemical
# Conditions: endogenous yeast PE as substrate; 0.1 M TrisHCl pH 7.5, 30°C, 50 min
row,Structure (SMILES),% activity at 10 or 100 μM
1,"CCCCCCCCCCCCCCCCCCOP(=O)([O-])OCC[N+](C)(C)C [compound 6, octadecylphosphocholine]","followed by miltefosine, octadecyltrimethylammonium bromide, and octadecylphosphocholine"
2,"CCCCCCCCCCCCCCCCCC[N+](C)(C)C [compound 1, octadecyltrimethylammonium bromide]","followed by miltefosine, octadecyltrimethylammonium bromide, and octadecylphosphocholine"
3,"CCCCCCCCCCCCCCCC[N+](C)(C)C [compound 2, hexadecyltrimethylammonium bromide]",LmjPEM1 activity was best inhibited by hexadecyltrimethylammonium bromide
4,"C[N+](C)(C)CCO [compound 3, choline]",while choline had a very small effect
5,"CCCCCCCCCCCCCCCCOP(=O)([O-])OCC[N+](C)(C)C [compound 5, miltefosine]","followed by miltefosine, octadecyltrimethylammonium bromide, and octadecylphosphocholine"
